Data set [1] deals with T1, AlaRS R326W binding to GST-Nrp1 b1 (Homo sapiens, UniProt P49588, R326W).
T1 construct: made in house; host or cells: E. coli BL21 (DE3), pET-21a for AlaRS
T1 sequence (P49588 1-968 R326W): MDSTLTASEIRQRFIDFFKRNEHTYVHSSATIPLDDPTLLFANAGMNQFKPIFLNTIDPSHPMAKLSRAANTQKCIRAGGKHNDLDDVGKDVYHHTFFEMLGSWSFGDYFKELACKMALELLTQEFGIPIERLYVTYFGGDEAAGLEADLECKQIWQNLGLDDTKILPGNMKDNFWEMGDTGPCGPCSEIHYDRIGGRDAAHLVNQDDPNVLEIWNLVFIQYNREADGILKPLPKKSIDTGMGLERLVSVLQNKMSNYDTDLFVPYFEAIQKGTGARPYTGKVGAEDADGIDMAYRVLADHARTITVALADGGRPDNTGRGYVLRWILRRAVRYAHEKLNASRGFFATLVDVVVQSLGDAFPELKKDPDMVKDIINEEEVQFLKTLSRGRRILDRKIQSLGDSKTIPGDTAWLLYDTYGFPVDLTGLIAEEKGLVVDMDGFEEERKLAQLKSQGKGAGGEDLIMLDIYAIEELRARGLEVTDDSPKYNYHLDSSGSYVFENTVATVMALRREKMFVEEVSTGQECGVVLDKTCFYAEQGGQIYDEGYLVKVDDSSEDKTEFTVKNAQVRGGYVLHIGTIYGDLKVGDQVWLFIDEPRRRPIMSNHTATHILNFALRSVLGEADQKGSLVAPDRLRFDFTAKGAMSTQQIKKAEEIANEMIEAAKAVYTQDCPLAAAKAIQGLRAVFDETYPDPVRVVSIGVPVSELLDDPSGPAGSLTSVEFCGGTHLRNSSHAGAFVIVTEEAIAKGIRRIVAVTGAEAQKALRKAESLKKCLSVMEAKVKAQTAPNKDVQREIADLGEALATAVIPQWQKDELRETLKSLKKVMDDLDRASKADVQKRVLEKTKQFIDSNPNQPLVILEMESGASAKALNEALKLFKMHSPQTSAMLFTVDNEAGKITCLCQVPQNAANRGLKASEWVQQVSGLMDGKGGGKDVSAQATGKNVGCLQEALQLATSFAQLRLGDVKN
Nature of the data set: GST pull down assay. The note with it: 20 µM Tanshinone I, ImageJ, average of three repeats. Here is the method:
To further investigate whether Tanshinone I-induced conformational changes in AlaRS CMT mutants affect their interaction with Nrp1, Co-IP experiments were performed in cells treated with Tanshinone I. By comparing Co-IP results obtained before and after treatment, we assessed the influence of the drug on the binding strength and mode between the AlaRS CMT mutants and Nrp1. […] To confirm the direct effect of Tanshinone I on the interaction between AlaRS CMT mutants and Nrp1, pull-down experiments were performed. […] Given that the interaction between AlaRS mutants and Nrp1 is associated with disease progression in CMT, the ability of Tanshinone I to disrupt this binding highlights its potential to intervene in the pathogenic mechanisms of these diseases.
Figure 7 The impact of Tanshinone I on the interaction between AlaRS mutants and Nrp1. (A) Co-IP assays were conducted to assess the binding between HA-AlaRS mutants and Nrp1, both with and without treatment with 20 µM Tanshinone I for 24 h. […] (C) Pull down assay was performed to detect the binding between AlaRS mutants and GST-Nrp1 b1 with or without 20 µM Tanshinone I. (D) Relative quantification statistics of the AlaRS mutants pulled down from the GST pull down experiments after Tanshinone I treatment were performed using ImageJ. (E) The cell viability of 293T and NSC34 cells treated with different concentrations of Tanshinone I was assessed using the CCK-8 assay over a 24 h period. TEXT PRINTED IN THE PICTURE: (B) Tanshinone I: Mean density band (N71Y): 0.60; Mean density band (G102R): 0.53; Mean density band (R326W): 0.50; Mean density band (R329H): 0.50; Mean density band (E337K): 0.62 | (D) Tanshinone I: Mean density band (N71Y): 0.82; Mean density band (G102R): 0.76; Mean density band (R326W): 0.84; Mean density band (R329H): 0.84; Mean density band (E337K): 0.90
To detect the direct interactions between the mutant proteins and Nrp1 in vitro, we performed a Glutathione S-transferase (GST) pull-down assay. AlaRS mutants fused with 6 × His were purified with Ni-NTA beads, followed by chromatography on a HiTrap Q HP column. Nrp1 b1 fragments fused with GST were purified with Glutathione Beads (#SA008100, Smart-Lifesciences, Changzhou, China). For GST pull-down assays, 1000 μg of each GST-fused Nrp1 b1 fragment was mixed with 200 μg of 6 × His-tagged fusion protein in binding buffer (50 mM Tris-HCl pH 7.5, 20 mM NaCl, 5% glycerol, 5 mM DTT with 0.1% BSA) at 4 °C overnight. The mixture was next incubated with 30 μL glutathione beads at 4 °C with constant rotation for 2–4 h. Subsequently, the bead/protein complex was washed three times, and eluted with 30 μL 2 × SDS sample buffer. The samples were then subjected to SDS-PAGE analysis. The experiment was repeated three times.

Data set [2] deals with 293T cells. Nature of the data set: Cell viability (CCK-8 assay). The format is cell-based. As to conditions: up to 40 μM, 24 h. The procedure:
(§1) Further validation of the safety and efficacy of Tanshinone I involved conducting cytotoxicity assays to ensure minimal toxicity to normal cells, while effectively inhibiting the abnormal interaction between AlaRS CMT mutants and Nrp1. We used the CCK-8 assay to evaluate the effects of Tanshinone I on 293T and NSC34 cells. Cells were treated with different concentrations of Tanshinone I for 24 h, followed by incubation with CCK-8 reagent. […] The Cell Counting Kit-8 (CCK-8) assay was performed to assess cell viability following the manufacturer’s instructions. Briefly, cells were seeded at an initial density of 5 × 10^3 cells per well in a 96-well plate and incubated overnight. The following day, the cells were treated with various concentrations of Tanshinone I. After 24 h of treatment, 10 μL of CCK-8 reagent (GlpBio, Montclair, CA, USA) was added to each well, and the plate was incubated at 37 °C with 5% CO2 for 1.5 h. Absorbance was then measured at 450 nm using a multimode microplate reader. The experiment was repeated three times.

Data set [3] has as its system NSC34 cells. Nature of the data set: Cell viability (CCK-8 assay). The note with it: up to 40 μM, 24 h. The data set is classed as cell-based. The procedure: as §1

On to `Cc1coc2c1C(=O)C(=O)c1c-2ccc2c(C)cccc12` [Tanshinone I], for which the “Mean density band (R326W), relative quantification of AlaRS mutant pulled down” value in data set [1] worked out at 0.84. Further, the Cell viability result in data set [2] and in data set [3] was “did not significantly affect the viability” each time.
